Laboratory results: US8673889B2, “BLT2-mediated disease, BLT2 binding agent and the compound” (Ono Pharmaceutical Co., Ltd., priority 2004, dated 2014)

What was measured:
Format in all cases: cell-based
[1] = target: T1, mBLT2 (Mus musculus, UniProt Q9JJL9); experiment: Measurement of intracellular Ca2+ concentration in mBLT2-expressing CHO cells; settings: FIG. 4, read-out: EC50 value, rise of the intracellular calcium concentration
T1 construct: mBLT2 ORF was amplified by PCR using a sense primer having BamHI restriction enzyme site; expressed in transfected cells
T1 sequence (Q9JJL9 1-360): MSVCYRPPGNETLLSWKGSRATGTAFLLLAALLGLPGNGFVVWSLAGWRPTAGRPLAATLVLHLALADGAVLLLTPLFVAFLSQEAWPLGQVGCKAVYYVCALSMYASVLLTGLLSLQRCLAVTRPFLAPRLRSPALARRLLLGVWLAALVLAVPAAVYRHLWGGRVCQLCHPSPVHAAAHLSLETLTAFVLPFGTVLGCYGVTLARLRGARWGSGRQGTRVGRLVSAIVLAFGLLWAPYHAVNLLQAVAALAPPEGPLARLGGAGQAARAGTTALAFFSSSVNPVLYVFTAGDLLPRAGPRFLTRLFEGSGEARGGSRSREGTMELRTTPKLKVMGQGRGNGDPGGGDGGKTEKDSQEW
Source text: mBLT2 ORF was amplified by PCR using a sense primer having BamHI restriction enzyme site (sense primer; 5′-[…]-3′ (SEQ ID NO.1)) and an antisense primer having EcoRI restriction enzyme site (antisense primer; 5′-[…]-3′ (SEQ ID NO.2)). The PCR product was digested with BamHI and EcoRI and inserted in expression plasmid (pcDNA3 Invitrogen). The inserted sequence was confirmed by the DNA sequence. Plasmid DNA ([…]) was transfected into CHO cells cultured in Ham's F-12 medium containing 10% fetal bovine serum and antibiotic (streptomycin (100 μg/mL) and penicillin (100 μg/L)) in cell culture plates (6 cm). The resistant strains were obtained by culturing for 2 weeks in the existence of antibiotic (G418 [Wako], 1 mg/mL). […]
mBLT2-expressing CHO cells prepared by Biological Example 3 were cultured in modified Hepes-Tyrode's BSA buffer (Hepes-NaOH (25 mM, pH7.4), NaCl (140 mM), KCl (2.7 mM), CaCl2(10 nM), NaHCO3(12 mM), D-Glucose (5.6 mM), NaH2PO4(0.37 mM), MgCl2(0.49 mM), cremophour (0.01%), fatty acid-free BSA (fraction V, 0.1w/v %)) containing fluorochrome (Fura-2 AM [Dojin], 3 μm) at 37° C. for 2 hours to make to take fluorochrome. […] Dimethylsulfoxide (DMSO) solution (5 μL) containing ligand was added to the cell suspension, of which the intracellular calcium concentration was monitored (excitation wavelength 340 nm and 380 nm and fluorescent wave-length 510 nm).

[2] = target: T2, mBLT1 (Mus musculus, UniProt O88855); experiment: Measurement of intracellular Ca2+ concentration in mBLT1-expressing CHO cells; settings: FIG. 4
T2 construct: expressed in transfected cells; host or cells: CHO cells
T2 sequence (O88855 whole entry): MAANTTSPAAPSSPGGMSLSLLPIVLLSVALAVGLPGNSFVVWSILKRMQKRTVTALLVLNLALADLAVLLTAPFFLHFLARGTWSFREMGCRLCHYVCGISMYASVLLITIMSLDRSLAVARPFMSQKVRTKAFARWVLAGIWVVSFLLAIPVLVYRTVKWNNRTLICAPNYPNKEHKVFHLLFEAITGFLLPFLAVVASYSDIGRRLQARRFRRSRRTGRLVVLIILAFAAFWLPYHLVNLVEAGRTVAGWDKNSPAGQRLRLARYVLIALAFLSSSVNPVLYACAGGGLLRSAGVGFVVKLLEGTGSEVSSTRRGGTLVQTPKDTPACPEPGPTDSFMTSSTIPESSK

[3] = system: mock; experiment: Measurement of intracellular Ca2+ concentration in mock cells; settings: FIG. 4
Method: mBLT2-expressing CHO cells prepared by Biological Example 3 were cultured in modified Hepes-Tyrode's BSA buffer (Hepes-NaOH (25 mM, pH7.4), NaCl (140 mM), KCl (2.7 mM), CaCl2(10 nM), NaHCO3(12 mM), D-Glucose (5.6 mM), NaH2PO4(0.37 mM), MgCl2(0.49 mM), cremophour (0.01%), fatty acid-free BSA (fraction V, 0.1w/v %)) containing fluorochrome (Fura-2 AM [Dojin], 3 μm) at 37° C. for 2 hours to make to take fluorochrome. These cells were washed 2 times and resuspended (10^6 cells/mL) in Hepes-Tyrode's BSA buffer. The cell suspension (0.5 mL) was applied to fluorescent intensity meter (CAF-100 system [Jasco]). Dimethylsulfoxide (DMSO) solution (5 μL) containing ligand was added to the cell suspension, of which the intracellular calcium concentration was monitored (excitation wavelength 340 nm and 380 nm and fluorescent wave-length 510 nm).

[4] = target: T1, mBLT2; experiment: ERK phosphorylation (1) in mBLT2-expressing CHO cells; settings: ligand 5 minutes, FIG. 5
Source text: mBLT2 ORF was amplified by PCR using a sense primer having BamHI restriction enzyme site (sense primer; 5′-[…]-3′ (SEQ ID NO.1)) and an antisense primer having EcoRI restriction enzyme site (antisense primer; 5′-[…]-3′ (SEQ ID NO.2)). The PCR product was digested with BamHI and EcoRI and inserted in expression plasmid (pcDNA3 Invitrogen). The inserted sequence was confirmed by the DNA sequence. Plasmid DNA ([…]) was transfected into CHO cells cultured in Ham's F-12 medium containing 10% fetal bovine serum and antibiotic (streptomycin (100 μg/mL) and penicillin (100 μg/L)) in cell culture plates (6 cm). The resistant strains were obtained by culturing for 2 weeks in the existence of antibiotic (G418 [Wako], 1 mg/mL). The stable expressing strains were obtained by culturing 19 obtained resistant strains with limiting dilution method.

[5] = target: T2, mBLT1; experiment: ERK phosphorylation (1) in mBLT1-expressing CHO cells; settings: ligand 5 minutes, FIG. 5
[6] = system: mouse primary culture keratinocytes; experiment: ERK phosphorylation (2) in mouse primary culture keratinocytes; settings: FIG. 7

- EC50 [1]: 21 nM
- rise of intracellular calcium concentration [2]: not rised
- ERK phosphorylation [4]: induced
- ERK phosphorylation [5]: induced
SMILES: CCCCC(=O)N(Cc1ccc(-c2ccccc2C(=O)O)cc1)c1ccccc1 [compound A, 4′-{[pentanoyl(phenyl)amino]methyl}-1,1′-biphenyl-2-carboxylic acid]
- rise of intracellular calcium concentration [3]: not rised
- ERK phosphorylation [6]: induced ERK phosphorylation
